Assay: Rate of dissolution of model melanin and color of its solutions
Type: physicochemical, Aspergillus niger
Settings: for Time of dissolution: model melanin; for Color of the solution: solution of model melanin

pH of the solution | Time of dissolution (1 mg/ml in PFOC) [min] | Color of the solution | Time of dissolution (not dissolved within this time) | Time of dissolution [min] | Structure (SMILES)
7 | 0.5 | Colorless |  |  | FC1(F)C(F)(F)C(F)(F)C2(F)C(F)(F)C(F)(F)C(F)(F)C(F)(F)C2(F)C1(F)F (stereo not drawn) [Perfluorodecalin (PFD), perfluorodecalin]
10 |  | -”- |  | 2 | NCCO [Monoethanolamine]
9.5 |  | Yellow- |  | 6 | [Na+].[OH-] [0.01 N sodium hydroxide, sodium hydroxide]
8 |  |  | Not dissolved in 5 hours |  | CCN(CC)CC [Triethylamine]
7 | 0.5 | Colorless |  |  | FC(F)(F)C(F)(F)C(F)(F)N(C(F)(F)C(F)(F)C(F)(F)F)C(F)(F)C(F)(F)C(F)(F)F [Tri(perfluoropropyl)amine (TPA), tri(perfluoropropyl)amine]
10.5 |  | -”- |  | 5 | N [0.01% ammonia, ammonia]
7 |  | Colorless |  | 5 | FC(F)(Br)C(F)(F)Br [1,2-dibromtetrafluoroethane]
3.5 |  |  | Not dissolved in 5 hours |  | CC(=O)O [0.01 N solution of acetic acid, acetic acid]

Structure (SMILES) | pH of the solution | Time of dissolution (1 mg/ml in PFOC) [min] | Color of the solution | Time of dissolution (not dissolved within this time) | Time of dissolution [min]
OO [4% solution of HP, hydrogen peroxide] | 3.5 |  |  | Not dissolved in 5 hours | 
FN(F)C1(C(F)(F)F)C(F)(F)C(F)(F)C(F)(F)C(F)(C(F)(F)F)C1(F)F (stereo not drawn) [Perfluoro-1,3-dimethyl-cyclohexylamine] | 7 |  | Lemon |  | 3

Source: patent publication US20040151679A1, “Dissolving agent for melanin” (priority 2001, published 2004)
